Measurements: patent publication US20260183275A1, “SUBSTITUTED QUINOLONE COMPOUNDS USEFUL AS INHIBITORS OF TLR9” (Bristol-Myers Squibb Company, priority 2022, published 2026)

Legend:
Format in all cases: cell-based
human TLR9 = biological target: T1, human TLR9 (Homo sapiens, UniProt Q9NR96); assay: TLR9 inhibition reporter assay (HEK-Blue cells, SEAP reporter); settings: HEK-Blue cells overexpressing human TLR9; stimulated with ODN2006 5 nM; SEAP read after 22 hour; dose range 0.05 nM-50 μM
T1 construct: host or cells: HEK-Blue cells
T1 sequence (Q9NR96 26-1032): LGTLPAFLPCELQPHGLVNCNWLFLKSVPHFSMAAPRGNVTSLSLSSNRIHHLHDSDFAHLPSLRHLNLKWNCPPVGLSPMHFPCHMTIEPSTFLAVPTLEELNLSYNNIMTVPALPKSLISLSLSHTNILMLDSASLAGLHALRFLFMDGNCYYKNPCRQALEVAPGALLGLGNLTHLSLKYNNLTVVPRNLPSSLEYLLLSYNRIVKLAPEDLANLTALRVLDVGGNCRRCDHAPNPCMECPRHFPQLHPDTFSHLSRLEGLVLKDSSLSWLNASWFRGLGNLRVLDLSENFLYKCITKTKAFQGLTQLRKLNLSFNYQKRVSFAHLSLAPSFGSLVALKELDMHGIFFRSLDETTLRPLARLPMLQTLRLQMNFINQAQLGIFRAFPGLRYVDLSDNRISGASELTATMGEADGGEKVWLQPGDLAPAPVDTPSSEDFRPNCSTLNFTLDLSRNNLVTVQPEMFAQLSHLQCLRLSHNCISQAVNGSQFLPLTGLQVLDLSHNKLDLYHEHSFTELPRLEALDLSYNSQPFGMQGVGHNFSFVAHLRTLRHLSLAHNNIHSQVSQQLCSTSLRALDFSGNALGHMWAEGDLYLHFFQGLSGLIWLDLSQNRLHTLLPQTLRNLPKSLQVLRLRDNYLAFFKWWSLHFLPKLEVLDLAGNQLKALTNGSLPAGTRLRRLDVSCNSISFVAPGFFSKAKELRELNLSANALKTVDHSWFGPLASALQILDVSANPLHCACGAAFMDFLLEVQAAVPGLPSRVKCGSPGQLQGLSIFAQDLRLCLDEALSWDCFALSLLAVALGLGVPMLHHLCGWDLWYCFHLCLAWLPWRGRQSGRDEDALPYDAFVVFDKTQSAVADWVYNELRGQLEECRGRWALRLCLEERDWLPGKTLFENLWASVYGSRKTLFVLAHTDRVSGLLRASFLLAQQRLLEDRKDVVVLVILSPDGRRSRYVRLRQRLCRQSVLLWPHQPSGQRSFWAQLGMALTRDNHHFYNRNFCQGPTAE
Outline: (§1)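 HEK-Blue cells with NF-κB/AP-1-driven SEAP pre-treated 30 min with compounds (0.05 nM-50 μM), then stimulated with gardiquimod 7.5 μM (TLR7), R848 15.9 μM (TLR8) or ODN2006 5 nM (TLR9). SEAP read after 22 h at 37° C; % inhibition relative to agonist+DMSO and reference-inhibitor wells.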

human TLR7 = biological target: T2, human TLR7 (Homo sapiens, UniProt Q9NYK1); assay: TLR7 inhibition reporter assay (HEK-Blue cells, SEAP reporter); settings: HEK-Blue cells overexpressing human TLR7; stimulated with gardiquimod 7.5 μM; SEAP read after 22 hour; dose range 0.05 nM-50 μM
T2 construct: host or cells: HEK-Blue cells
T2 sequence (Q9NYK1 27-1049): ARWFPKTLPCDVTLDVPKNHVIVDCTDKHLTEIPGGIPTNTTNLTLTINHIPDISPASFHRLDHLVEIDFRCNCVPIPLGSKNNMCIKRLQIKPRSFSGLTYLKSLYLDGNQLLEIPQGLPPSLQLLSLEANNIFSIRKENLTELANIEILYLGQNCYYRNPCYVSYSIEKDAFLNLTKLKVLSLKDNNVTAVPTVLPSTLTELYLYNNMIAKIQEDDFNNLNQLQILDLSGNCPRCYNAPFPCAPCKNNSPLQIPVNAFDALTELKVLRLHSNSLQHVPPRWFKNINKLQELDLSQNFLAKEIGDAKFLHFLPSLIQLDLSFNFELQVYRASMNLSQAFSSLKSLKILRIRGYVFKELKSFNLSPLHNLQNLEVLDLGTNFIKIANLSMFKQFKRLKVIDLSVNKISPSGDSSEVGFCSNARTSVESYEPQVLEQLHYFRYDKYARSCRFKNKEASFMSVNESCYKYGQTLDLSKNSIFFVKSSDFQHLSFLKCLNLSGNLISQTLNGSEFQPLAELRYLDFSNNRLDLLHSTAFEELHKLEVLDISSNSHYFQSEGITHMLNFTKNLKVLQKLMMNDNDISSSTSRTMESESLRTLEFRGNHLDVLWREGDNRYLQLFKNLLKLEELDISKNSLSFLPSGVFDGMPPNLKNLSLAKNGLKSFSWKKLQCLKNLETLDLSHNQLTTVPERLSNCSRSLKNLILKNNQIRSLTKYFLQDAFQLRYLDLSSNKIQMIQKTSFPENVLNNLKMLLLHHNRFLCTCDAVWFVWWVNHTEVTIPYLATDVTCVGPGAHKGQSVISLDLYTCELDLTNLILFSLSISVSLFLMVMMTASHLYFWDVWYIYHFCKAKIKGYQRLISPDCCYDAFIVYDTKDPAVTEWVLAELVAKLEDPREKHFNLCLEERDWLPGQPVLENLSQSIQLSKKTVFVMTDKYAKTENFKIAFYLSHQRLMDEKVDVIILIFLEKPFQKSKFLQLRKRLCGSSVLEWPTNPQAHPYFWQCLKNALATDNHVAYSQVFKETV
Outline: as §1

human TLR8 = biological target: T3, human TLR8 (Homo sapiens, UniProt Q9NR97); assay: TLR8 inhibition reporter assay (HEK-Blue cells, SEAP reporter); settings: HEK-Blue cells overexpressing human TLR8; stimulated with R848 15.9 μM; SEAP read after 22 hour; dose range 0.05 nM-50 μM
T3 construct: host or cells: HEK-Blue cells
T3 sequence (Q9NR97 27-1041): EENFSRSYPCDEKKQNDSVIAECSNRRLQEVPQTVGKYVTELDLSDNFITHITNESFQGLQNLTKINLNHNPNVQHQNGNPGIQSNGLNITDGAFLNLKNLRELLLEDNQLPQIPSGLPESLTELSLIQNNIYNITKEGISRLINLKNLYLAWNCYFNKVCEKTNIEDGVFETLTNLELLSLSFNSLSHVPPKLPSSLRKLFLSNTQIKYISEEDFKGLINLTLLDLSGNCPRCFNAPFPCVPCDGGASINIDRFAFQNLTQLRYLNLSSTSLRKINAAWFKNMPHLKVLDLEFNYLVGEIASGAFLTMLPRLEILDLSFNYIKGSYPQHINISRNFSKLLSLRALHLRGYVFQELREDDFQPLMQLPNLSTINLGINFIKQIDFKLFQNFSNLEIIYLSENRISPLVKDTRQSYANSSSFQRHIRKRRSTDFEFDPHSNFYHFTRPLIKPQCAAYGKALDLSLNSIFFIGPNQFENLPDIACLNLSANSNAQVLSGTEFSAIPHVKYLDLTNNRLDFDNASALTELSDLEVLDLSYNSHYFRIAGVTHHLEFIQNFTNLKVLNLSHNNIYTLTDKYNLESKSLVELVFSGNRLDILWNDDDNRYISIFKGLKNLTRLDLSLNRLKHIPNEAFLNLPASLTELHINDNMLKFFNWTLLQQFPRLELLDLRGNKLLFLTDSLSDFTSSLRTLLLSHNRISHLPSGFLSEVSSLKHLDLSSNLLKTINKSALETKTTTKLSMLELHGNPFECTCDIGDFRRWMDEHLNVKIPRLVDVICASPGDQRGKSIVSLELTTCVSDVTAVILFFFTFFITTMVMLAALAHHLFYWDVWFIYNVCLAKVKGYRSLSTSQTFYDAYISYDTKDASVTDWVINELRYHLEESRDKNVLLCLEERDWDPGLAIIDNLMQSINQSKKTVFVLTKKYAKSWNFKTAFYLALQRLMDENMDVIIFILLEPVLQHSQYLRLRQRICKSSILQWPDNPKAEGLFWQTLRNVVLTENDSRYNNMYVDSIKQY
Outline: as §1

| IC50 (human TLR9) [µM] | IC50 (human TLR7) [µM] | IC50 (human TLR8) [µM] | SMILES |
| --- | --- | --- | --- |
| 0.4 | 14.6 | 26.3 | CC(C)Cn1c(=O)c(-c2ccc(S(C)(=O)=O)cc2)cc2cc(-c3ccc(C4CCN(C(C)C)CC4)cc3)ccc21 [Example 85, 3-(4-methanesulfonylphenyl)-1-(2-methylpropyl)-6-{4-[1-(propan-2-yl)piperidin-4-yl]phenyl}-1,2-dihydroquinolin-2-one] |
| 0.406 | 10.4 | 1.55 | CCc1c(-c2ccc(S(C)(=O)=O)cc2)c(=O)n(C)c2ccc(-c3ccc(C4CCN(C(C)C)CC4)cc3)cc12 [Example 86, 4-ethyl-3-(4-methanesulfonylphenyl)-1-methyl-6-{4-[1-(propan-2-yl)piperidin-4-yl]phenyl}-1,2-dihydroquinolin-2-one] |
| 0.416 | ≥ 50 | 30 | Cn1c(=O)c(-c2ccc(S(C)(=O)=O)cc2)cc2cc(-c3ccc(C4CCN(C5COC5)CC4)cc3)ccc21 [Example 87, 3-(4-methanesulfonylphenyl)-1-methyl-6-{4-[1-(oxetan-3-yl)piperidin-4-yl]phenyl}-1,2-dihydroquinolin-2-one] |
| 0.465 | 4.96 | 10.9 | CC(C)N1CCC(c2ccc(-c3ccc4c(c3)cc(-c3ccc(S(C)(=O)=O)cc3)c(=O)n4CC(C)(C)O)cc2)CC1 [Example 89, 1-(2-hydroxy-2-methylpropyl)-3-(4-methanesulfonylphenyl)-6-{4-[1-(propan-2-yl)piperidin-4-yl]phenyl}-1,2-dihydroquinolin-2-one] |
| 0.493 | 3.09 | ≥ 50 | CC(C)N1CCN(c2ccc(Nc3ccc4[nH]c(=O)c(-c5ccc(S(C)(=O)=O)cc5)cc4c3)cc2)CC1 [Example 90, 3-(4-methanesulfonylphenyl)-6-({4-[4-(propan-2-yl)piperazin-1-yl]phenyl}amino)-1,2-dihydroquinolin-2-one] |
| 0.512 | ≥ 50 | ≥ 50 | O=c1[nH]c2ccc(-c3ccc(C4CCN(C5COC5)CC4)cc3)cc2cc1-c1ccc(OC(F)F)cc1 [Example 91, 3-[4-(difluoromethoxy)phenyl]-6-{4-[1-(oxetan-3-yl)piperidin-4-yl]phenyl}-1,2-dihydroquinolin-2-one] |
| 0.56 | ≥ 50 | 11.4 | NS(=O)(=O)c1ccc(-c2cc3cc(-c4ccc(C5CCN(C6COC6)CC5)cc4)ccc3[nH]c2=O)cc1 [Example 92, 4-(6-{4-[1-(oxetan-3-yl)piperidin-4-yl]phenyl}-2-oxo-1,2-dihydroquinolin-3-yl)benzene-1-sulfonamide] |
| 0.651 | 1.87 | 49.8 | CC(C)N1CCC(c2ccc(-c3ccc4[nH]c(=O)c(-c5ccc6nccnc6c5)cc4c3)cc2)CC1 [Example 93, 6-{4-[1-(propan-2-yl)piperidin-4-yl]phenyl}-3-(quinoxalin-6yl)-1,2-dihydroquinolin-2-one] |
| 0.689 | ≥ 50 | ≥ 50 | O=c1[nH]c2ccc(-c3ccc(C4CCN(C5COC5)CC4)cc3)cc2cc1-c1ccc2nccnc2c1 [Example 94, 6-{4-[1-(oxetan-3-yl)piperidin-4-yl]phenyl}-3-(quinoxalin-6-yl)-1,2-dihydroquinolin-2-one] |
| 0.691 | 5.89 | 0.731 | CCc1c(-c2ccc(OC)c(OC)c2)c(=O)[nH]c2ccc(-c3ccc(N4CCN(C(C)C)CC4)cc3)cc12 [Example 95, 3-(3,4-dimethoxyphenyl)-4-ethyl-6-{4-[4-(propan-2-yl)piperazin-1-yl]phenyl}-1,2-dihydroquinolin-2-one] |
| 1.43 | 17.3 | ≥ 50 | CC(C)N1CCC(c2ccc(-c3ccc4c(c3)cc(-c3ccc(N(C)C)cc3)c(=O)n4C)cc2)CC1 [Example 96, 3-[4-(dimethylamino)phenyl]-1-methyl-6-{4-[1-(propan-2-yl)piperidin-4-yl]phenyl}-1,2-dihydroquinolin-2-one] |
| 0.96 | 2.51 | 20.1 | CN1CCC(c2ccc3[nH]c(=O)c(-c4ccc(S(C)(=O)=O)cc4)cc3c2)CC1 [Example 97, 3-(4-methanesulfonylphenyl)-6-(1-methylpiperidin-4-yl)-1,2-dihydroquinolin-2-one] |
| 1.43 | ≥ 50 | 26.7 | CS(=O)(=O)Nc1cccc(-c2cc3cc(-c4ccc(C5CCN(C6COC6)CC5)cc4)ccc3[nH]c2=O)c1 [Example 98, N-[3-(6-{4-[1-(oxetan-3-yl)piperidin-4-yl]phenyl}-2-oxo-1,2-dihydroquinolin-3-yl)phenyl]methanesulfonamide] |
| 1.65 | 16.7 | ≥ 50 | N#Cc1cccc(-c2cc3cc(-c4ccc(C5CCN(C6COC6)CC5)cc4)ccc3[nH]c2=O)c1 [Example 99, 3-(6-{4-[1-(oxetan-3-yl)piperidin-4-yl]phenyl}-2-oxo-1,2-dihydroquinolin-3-yl) benzonitrile] |
